In patent US20130071897A1, “METHOD FOR CONTROLLING UNDESIRABLE BYPRODUCTS FORMATION CAUSED BY CONTAMINATING ORGANISMS IN THE PRODUCTION OF ETHANOL FROM SYNGAS” (COSKATA, INC., priority 2011, published 2013):
Where “and” joins values, the source holds several entries; their conditions need not be identical. Equal entries are not always repeated.

Tests used:
[1] = system: Clostridium tyrobutyricum; experiment: Balch tube batch growth of strict butyrogen Clostridium tyrobutyricum on fructose, optical density; assay type: cell-based; conditions: added 21 h after inoculation
Protocol: Similar experiments were conducted to make a preliminary determination as to which of the crotonate and crotonate-like compounds would act as butyrogen retardants. For this purpose the selected compounds were tested again in a series of batch experiments to determine the growth response of butyrogens to the presence of the compound at varying concentrations. The batch experiments were all conducted by anoxically filling a 20 ml Balch tube with 5 ml of a fermentation medium having the composition given in Tables 2 and 3. The media included 0.5 v/v final concentration of a fructose substrate. For each of the crotonate concentrations tested, duplicate test tubes were prepared.
Each tube was inoculated with 0.5 ml seed culture inoculum of the strict butyrogen Clostridium tyrobutyricum. The tubes were maintained at a temperature of 37° C. Twenty one hours after the inoculation of the tube with the bacteria, the different compounds from Table 1 were added to different tubes in the amounts indicated in Table 6. This was at a time of early to mid-log phase growth for the bacteria. Each fermentation of the bacteria in the media at the different concentration of crotonate derivatives were allowed to progress and were monitored to determine the bacteria growth at selected intervals of time varying from approximately 20 hours to 54 hours. Growth at the intervals was measured by reading the optical density (OD) of the fermentation liquid. Optical density was measured as described in Example 1. The ability of a tube fermentation at a particular concentration of crotonate derivative to reach a predetermined optical density was recorded in Table 6. Table 6 indicates the presence of bacterial growth to an OD of approximately 1.8 or above with a “+”, and to an optical density in a range of 0.7 to 1.5 as a “+/−”, and indicates the failure of bacterial growth to reach an optical density of approximately 0.7 as a “−”.

[2] = system: acyl-CoA dehydrogenases; experiment: In vitro acyl-CoA dehydrogenase ferrocenium assay with C. tyrobutyricum cell-free extract; assay type: biochemical; conditions: 0.5 to 10 mM compound; rate of ferrocenium reduction at 300 nm
Protocol: Lehman, et al., in An Acyl-Coenzyme A Dehydrogenase Assay Utilizing the Ferricenium Ion, Analytical Biochemistry 186, pages 280-284 (1990), disclose an in vitro assay screening technique for acyl-CoA dehydrogenases for determining enzyme deficiencies in children. An adaptation of this technique was explored as a potential screening method for ascertaining potential butyrogen inhibitors. An aqueous assay liquor is prepared such that each 1 milliliter sample contains 50 mM of TrisHCl buffer (pH 7.6); 0.05 mM of butyryl-CoA; 5 micromoles of FAD (flavin adenine dinucleotide) and 0.4 mM of ferrocenium. Whole cells of C. tyrobutyricum are lysed and are added to the assay liquor. […] The abbreviation mM stands for millimolar. To assure metabolic consistency among the samples a master batch of C. tyrobutyricum is prepared and harvested at the early log growth stage (approximate O.D. of between about 0.5 and 0.7). The master batch fermentation broth is centrifuged and rinsed with 50 mM TrisHCl buffer (pH 7.6), centrifuged and reconstituted with 50 mM TrisHCl buffer (pH 7.6) to be 10 times more concentrated than the original master batch. Aliquots of about 0.5 milliliter are placed into cryogenic vials (about 1.8 milliliter capacity) and frozen at −80° C. until needed. When needed, a vial is placed in an anoxic Coy chamber and allowed to thaw to room temperature. Once thawed, the cells are added to a 15 mL centrifuge tube and diluted with 0.5 mL of a 2 mg/mL solution of lysozyme (purchased from Aldrich) in 50 mM Tris-HCl (final concentration of lysozyme is about 1 mg/mL). The centrifuge tube is inverted 5 times, removed from the Coy chamber and allowed to incubate at 37° C. for 30 minutes. […] The centrifuge tube is vortexed in the Coy chamber for about 30 seconds, removed from the chamber and centrifuged for 15 minutes at 4000 rpm and 4° C. The tube is returned to the chamber and the cell-free extract (supernatant) is used to prepare the above described samples. The samples are analyzed at various times by absorbance spectroscopy at 300 nm using a Thermo Scientific Evolution 300 UV/Vis spectrophotometer with a 7-cuvette carousel and Starna quartz cuvettes with a septum cap to determine the amount of reduction of ferrocenium. The sample is at laboratory temperature and is maintained under anaerobic conditions. Typically, the absorbance is measured over a period of about 10 to 20 minutes which is sufficient time for the absorbance to stop changing. A linear slope of the rate of change in absorbance during the period that the absorbance is changing is determined using Microsoft Excel® 2010 linear regression to generate a straight line from the data points. The more gradual the slope, the better inhibition because the enzyme is slower at reducing the ferrocenium in the assay sample. A dose-response curve is then determined for each compound by plotting the linear slope against the respective compound concentration. A linear slope is then determined for each compound using Microsoft Excel® 2010 linear regression to generate a straight line from the data points. The steeper the dose-response slope, the better the inhibition because the increased concentration of the compound causes more of a difference in enzyme activity. The dose-response slope generally has a broad standard of deviation due to experimental imprecision and slope determinations.

[3] = system: C. autoethanogenum; experiment: Balch tube batch growth of homoacetogen C. autoethanogenum on fructose, optical density; assay type: cell-based; conditions: added 21 h after inoculation
Protocol: These compounds were first tested to determine their effect on a known homoacetogen. Each compound was tested in a series of batch experiments to determine the growth response of a homoacetogen to the presence of the compound at varying concentrations. The batch experiments were all conducted by anoxically filling a Balch tube with 5 ml of a fermentation medium having the composition given in Tables 2 and 3. To expedite results, these batch experiments used fructose as the growth nutrient source for bacteria. Thus, the media included a 5 g/L of fructose.
Each tube was inoculated with 0.5 ml of the same strain of C. autoethanogenum bacteria seed culture inoculum. The tubes were maintained at a temperature of 37° C. Twenty one hours after the inoculation of the tube with the bacteria, the different crotonate derivatives from Table 1 were added to different tubes in the amounts indicated in Table 4 This was at a time of early to mid-log phase growth for the bacteria. Each fermentation of the bacteria in the media at the different concentration of crotonate derivatives were allowed to progress and were monitored to determine the bacteria growth at selected intervals of time varying from approximately 20 hours to 190 hours. Growth at the intervals was measured by reading the optical density (OD) of the fermentation liquid. Optical density was measured using a Spectronic Spec 20 (Thermo Spectronic) at a wavelength of 600 nm. The OD of the Balch tube culture was measured directly in the tube using absorbance mode on the Spec 20 machine. The machine was set to zero absorbance by first measuring and adjusting the setting to zero absorbance using media only as a blank. This process was repeated at each indicated time point throughout the experiment. The ability of a tube fermentation at a particular concentration of crotonate derivative to reach a predetermined optical density was recorded in Table 4. Table 4 indicates the presence of bacterial growth to an OD of approximately 2 or above with a “+”, and to an optical density in a range of 0.5 to 1.5 as a “+/−”, and indicates the failure of bacterial growth to reach an optical density of approximately 0.5 as a “−”.

[4] = system: C. autoethanogenum; experiment: Toxicity to C. autoethanogenum by batch fermentation using syngas substrate, optical density; assay type: cell-based, Clostridium autoethanogenum; conditions: for O.D. Response of Various Inhibitors on C. autoethanogenum: Table 21, one value per compound; for O.D. Response to Various Inhibitors: duplicates A and B, amount not given
Protocol: In this example various crotonate-like compounds on are evaluated for toxicity to C. autoethanogenum by batch fermentation using syngas substrate. The batch fermentations are conducted by anoxically filling 100 mL serum bottles with 10 mL of media having the composition given in Tables 12 and 13. Duplicate runs are conducted for each concentration. The compounds are: • C-1 Ethyl 4,4,4-trifluoro-3-(trifluoromethyl)crotonate • C-4 4,4,4-Trifluorocrotonamide • C-9 Ethyl 4,4,4-Trifluoro-3-(amino)crotonate • C-18 3 trifluoromethyl-4-methoxybenzoate.
Each bottle is inoculated with 1.0 mL of seed culture inoculum from an active fermenter using syngas substrate and containing Clostridium autoethanogenum, which inoculum has an OD of about 4.92 (which upon a 10 times dilution provides a starting OD for the fermentation of about 0.49). The bottles are gased with syngas to about 100 kilopascals and maintained at a temperature of 37° C. The bottles are regassed with syngas every 8 to 12 hours. The syngas has the approximate composition set forth in Examples 6 to 10. Twenty four hours after inoculation of the bottles with the bacteria, the compounds are added to different bottles as a solution in 50 μL of N-methylpyrrolidone in the amounts indicated in Tables 20 and 21. The fermentation process is allowed to progress at 37° C. At selected intervals of time, bacterial growth is measured by reading the OD of the fermentation liquid using a Thermo Spectronic Genesys 20 spectrophotometer. Optical density is measured by anoxically removing an aliquot of fermentation liquid and adding it to a disposable cuvette. OD's ranging between 0.01 and 0.4 are measured using fermentation liquid directly, while OD's greater than 0.4 are measure after performing a 1/10 dilution with water.

[5] = 0 Hours, added 24 h after inoculation
[6] = 2.5 Hours, added 24 h after inoculation
[7] = 6.5 Hours, added 24 h after inoculation
[8] = 24.5 Hours, added 24 h after inoculation

SMILES	Optical density valuation of C. tyrobutyricum ([1]; 100 ppm(m))	Optical density valuation of C. tyrobutyricum ([1]; 500 ppm(m))	Optical density valuation of C. tyrobutyricum ([1]; 1000 ppm(m))	Dose-Response Slope [2]	Optical density valuation of C. autoethanogenum ([3]; 10 ppm(m))	Optical density valuation of C. autoethanogenum ([3]; 100 ppm(m))	Optical density valuation of C. autoethanogenum ([3]; 500 ppm(m))	Optical density valuation of C. autoethanogenum ([3]; 1000 ppm(m))	Optical density valuation of C. autoethanogenum ([3]; 5000 ppm(m))	Optical density valuation of C. autoethanogenum ([3]; 10000 ppm(m))	also measured
CCOC(=O)/C(C)=C/C(F)(F)F [F, ethyl-2-methyl-4,4,4-trifluorocrotonate, reference compound]	+ (bacterial growth to an OD of approximately 1.8 or above)	+ (bacterial growth to an OD of approximately 1.8 or above)	+ (bacterial growth to an OD of approximately 1.8 or above)	2	+ (bacterial growth to an OD of approximately 2 or above)	+ (bacterial growth to an OD of approximately 2 or above)	+ (bacterial growth to an OD of approximately 2 or above)	+ (bacterial growth to an OD of approximately 2 or above)	+/− (to an optical density in a range of 0.5 to 1.5)	− (failure of bacterial growth to reach an optical density of approximately 0.5)	
CCOC(=O)/C=C/C(F)(F)F [E, ethyl 4,4,4-trifluorocrotonate]	+ (bacterial growth to an OD of approximately 1.8 or above)	+ (bacterial growth to an OD of approximately 1.8 or above)	+ (bacterial growth to an OD of approximately 1.8 or above)	6	+ (bacterial growth to an OD of approximately 2 or above)	+ (bacterial growth to an OD of approximately 2 or above)	+ (bacterial growth to an OD of approximately 2 or above)	+ (bacterial growth to an OD of approximately 2 or above)	− (failure of bacterial growth to reach an optical density of approximately 0.5)	− (failure of bacterial growth to reach an optical density of approximately 0.5)	
NC(=O)/C=C/C(F)(F)F [Compound C-4, 4,4,4-Trifluorocrotonamide]				8							O.D. Response of Various Inhibitors on C. autoethanogenum [4, 5]: 0.49; O.D. Response of Various Inhibitors on C. autoethanogenum [4, 6]: 0.41; O.D. Response of Various Inhibitors on C. autoethanogenum [4, 7]: 0.42; O.D. Response of Various Inhibitors on C. autoethanogenum [4, 8]: 1.06; O.D. Response of Various Inhibitors on C. autoethanogenum ([4]; 30.5 Hours): 1.32; O.D. Response of Various Inhibitors on C. autoethanogenum ([4]; 47.5 Hours): 1.67; O.D. Response of Various Inhibitors on C. autoethanogenum ([4]; 56 Hours): 1.72; O.D. Response to Various Inhibitors [4, 5]: 0.49; O.D. Response to Various Inhibitors [4, 6]: 0.40 and 0.42; O.D. Response to Various Inhibitors [4, 7]: 0.4 and 0.43; O.D. Response to Various Inhibitors [4, 8]: 1.03 and 1.09; O.D. Response to Various Inhibitors ([4]; 30.5 Hours, added 24 h after inoculation): 1.31 and 1.33; O.D. Response to Various Inhibitors ([4]; 47.5 Hours, added 24 h after inoculation): 1.7 and 1.64
